In one data set the target is Wee1-like protein kinase (Homo sapiens, UniProt P30291). Briefly: Inhibition of human WEE1 using LSNLYHQGKFLQTFCGSPLYRRR peptide as substrate incubated for 40 mins in presence of [gamma-33P]ATP by scintillation counting method.
Data set [1] has as its target Serine/threonine-protein kinase PLK1 (Homo sapiens, UniProt P53350). Briefly: Inhibition of human PLK1 incubated for 40 mins in presence of [gamma-33P]ATP by scintillation counting method.
Data set [2] can be described thus: Oral bioavailability in CD-1 mouse at 10 mg/kg. As to conditions: in vivo. The data set is classed as ADME, organism-based.

Serine/threonine-protein kinase PLK1, sequence (P53350 whole entry): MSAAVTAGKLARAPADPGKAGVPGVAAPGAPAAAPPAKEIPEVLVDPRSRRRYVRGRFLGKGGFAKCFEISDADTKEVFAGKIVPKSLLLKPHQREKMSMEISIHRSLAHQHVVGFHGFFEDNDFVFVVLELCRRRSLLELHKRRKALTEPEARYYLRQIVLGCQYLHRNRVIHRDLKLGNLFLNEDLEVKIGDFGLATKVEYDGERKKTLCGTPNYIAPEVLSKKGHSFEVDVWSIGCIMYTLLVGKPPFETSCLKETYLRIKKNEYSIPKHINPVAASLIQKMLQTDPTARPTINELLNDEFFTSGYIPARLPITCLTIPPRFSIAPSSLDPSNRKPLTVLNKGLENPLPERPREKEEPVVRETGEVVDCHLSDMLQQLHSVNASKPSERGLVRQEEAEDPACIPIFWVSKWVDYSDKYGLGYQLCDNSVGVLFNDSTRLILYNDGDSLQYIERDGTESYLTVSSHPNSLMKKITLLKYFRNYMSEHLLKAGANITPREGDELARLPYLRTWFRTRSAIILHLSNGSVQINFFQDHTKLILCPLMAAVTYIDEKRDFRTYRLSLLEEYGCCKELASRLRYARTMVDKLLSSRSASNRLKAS
Wee1-like protein kinase, sequence (P30291 whole entry): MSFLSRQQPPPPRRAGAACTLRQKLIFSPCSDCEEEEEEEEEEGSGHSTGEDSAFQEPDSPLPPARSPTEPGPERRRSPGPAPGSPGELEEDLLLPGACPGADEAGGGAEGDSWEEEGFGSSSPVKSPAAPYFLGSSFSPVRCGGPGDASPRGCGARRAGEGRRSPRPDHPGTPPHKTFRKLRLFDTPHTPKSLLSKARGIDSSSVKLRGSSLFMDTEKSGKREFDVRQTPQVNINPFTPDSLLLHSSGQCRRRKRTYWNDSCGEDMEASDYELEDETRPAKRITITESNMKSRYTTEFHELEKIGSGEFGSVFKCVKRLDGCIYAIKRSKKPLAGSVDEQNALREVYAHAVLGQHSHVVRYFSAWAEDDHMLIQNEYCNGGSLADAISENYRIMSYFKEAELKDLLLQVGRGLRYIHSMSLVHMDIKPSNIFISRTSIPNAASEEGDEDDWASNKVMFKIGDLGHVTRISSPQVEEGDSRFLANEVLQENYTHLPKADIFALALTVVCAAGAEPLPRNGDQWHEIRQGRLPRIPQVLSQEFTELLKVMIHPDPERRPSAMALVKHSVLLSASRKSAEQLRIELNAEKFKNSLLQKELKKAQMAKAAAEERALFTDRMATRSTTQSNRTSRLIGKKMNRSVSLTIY

Turning to `CCN1CCC(NC(=O)c2ccc(Nc3ncc4c(F)cn(-c5cccc(C(C)(C)O)n5)c4n3)cc2)CC1`, the values for the IC50 (at Wee1-like protein kinase; in data set [1]) were 33 nM and 34 nM, respectively.

Take `CN1CCC(NC(=O)c2ccc(Nc3ncc4ccn(-c5cccc(C(C)(C)O)n5)c4n3)cc2)CC1`: the 50% inhibitory concentration (IC50) (in general, the point on the concentration scale where inhibition reaches its midpoint) is 33 nM on Wee1-like protein kinase and 59 nM in data set [1].

As for `CC(C)(O)c1cccc(-n2cc(F)c3cnc(Nc4ccc(N5CCNC6(CC6)C5)cc4)nc32)n1`, the results for the IC50 (at Wee1-like protein kinase; in data set [1]) were 63 nM and 61 nM, respectively.

Regarding `CC(C)(O)c1cccc(-n2cc(F)c3cnc(Nc4ccc(C(=O)NC5CCOCC5)cc4)nc32)n1`, the results for the IC50 (at Wee1-like protein kinase; in data set [1]) were 45 nM and 9 nM, respectively.

Take `CC(C)(O)c1cccc(-n2cc(F)c3cnc(Nc4ccc(N5C[C@@H]6C[C@H]5CN6)cc4)nc32)n1`: the IC50 is 24 nM on Wee1-like protein kinase and 30 nM in data set [1].

For the compound `CC(C)(O)c1cccc(-n2cc(F)c3cnc(Nc4ccc(NC(=O)C5CCOCC5)cc4)nc32)n1`, the IC50 was 52 nM at Wee1-like protein kinase and 30 nM in data set [1].

Turning to `CC(C)(O)c1cccc(-n2cc(F)c3cnc(Nc4ccc(N5CCNCC5)cc4)nc32)n1`, the IC50 on Wee1-like protein kinase was found to be 52 nM; in data set [1] it was 60 nM.

With `CC(C)(O)c1cccc(-n2cc(F)c3cnc(Nc4ccc(N5C[C@H]6C[C@@H]5CN6)cc4)nc32)n1`, the IC50 on Wee1-like protein kinase was 21 nM; in data set [1], 19 nM.

On to `CN1CCC(NC(=O)c2ccc(Nc3ncc4c(F)cn(-c5cccc(C(C)(C)O)n5)c4n3)cc2)CC1`, for which the IC50 is 39 nM at Wee1-like protein kinase and 29 nM in data set [1].

`CN1CCN(c2ccc(Nc3ncc4c(F)cn(-c5cccc(N=S(C)(C)=O)n5)c4n3)cc2)CC1`: the bioavailability (commonly dose-corrected exposure relative to a reference, in per cent) in data set [2] is greater than 90%. For the same compound, the IC50 at Wee1-like protein kinase turned out to be 26 nM; in data set [1], 384 nM.

Consider `CCN1CCC(Oc2ccc(Nc3ncc4c(F)cn(-c5cccc(C(C)(C)O)n5)c4n3)cc2)CC1`, for which the IC50 on Wee1-like protein kinase is 19 nM; in data set [1], 39 nM.

`CN1CCN(c2ccc(Nc3ncc4c(F)cn(-c5cccc(C6(F)COC6)n5)c4n3)cc2)CC1`: the IC50 was 19 nM at Wee1-like protein kinase and 24 nM in data set [1].

The values above are taken from ChEMBL document CHEMBL4825769, “Modulation of KRAS Mutant by Inhibiting PLK1 Kinase in Cancer Therapeutics” (ACS Med Chem Lett, 2021).
